We go through five compounds from PMC11940343, “In Vitro and In Vivo Evaluation of the De Novo Designed Antimicrobial Peptide P6.2 Against a KPC-Producing P. aeruginosa Clinical Isolate” (Biomolecules, 2025).

Values after ≈ are worked out from the molar mass of the structure shown. Read-outs that look alike come from different tables or passages of the source.

In one experiment the test system is Gram-negative bacteria. Conditions: cited from earlier work. The text has this:
This resistance arises from enzymatic inactivation by carbapenemases, as mentioned before, decreased cellular entry due to reduced expression of the outer membrane porins, and increased expression of efflux pumps.

Experiment [1] concerns Pseudomonas aeruginosa M13513. Nature of the experiment: MIC by broth microdilution (CLSI). The class given is cell-based. Conditions: two consecutive values shown where replicates varied by one dilution. The text has this:
Pseudomonas aeruginosa M13513 is a clinical isolate carrying the carbapenemase KPC-2 (blaKPC-2 gene). This strain was generously supplied by the Servicio Antimicrobianos, Instituto Nacional de Enfermedades Infecciosas (INEI)-ANLIS “Dr. Carlos G. Malbrán” in Buenos Aires, Argentina.
For antimicrobial testing, bacterial cultures were maintained in Cation-Adjusted Mueller–Hinton Broth (CAMHB), following Clinical and Laboratory Standards Institute (CLSI) guidelines.
The minimal inhibitory concentration was assessed using a standard microdilution assay, following CLSI guidelines. Mueller–Hinton Broth (Laboratorios Britania S.A., Buenos Aires, Argentina) supplemented with Ca^2+ (20–25 mg/L) and Mg^2+ (10–12.5 mg/L) was used for the assay. The bacterial strains tested included Pseudomonas aeruginosa PAO1, Pseudomonas aeruginosa M13513, and Staphylococcus aureus ATCC® 25923.
(Broth dilution looks for growth in wells or tubes with falling amounts of substance.)

Where [2] appears, read: Pseudomonas aeruginosa, M13513, CAMHB, read-out: MIC.

Broadly, the MIC is the lowest concentration that inhibits growth of the organism.

As to polymyxin B, the interaction with meropenem result in the experiment with Gram-negative bacteria is listed as “displays synergy with meropenem”.

For the compound `C[C@@H](O)[C@H]1C(=O)N2C(C(=O)O)=C(S[C@@H]3CN[C@H](C(=O)N(C)C)C3)[C@H](C)[C@H]12` [Meropenem, meropenem], the minimum inhibitory concentration (MIC) in experiment [1] (CAMHB) was 512/1024.

Take `CNC(C)C1CCC(N)C(OC2C(N)CC(N)C(OC3OCC(C)(O)C(NC)C3O)C2O)O1` (centres unmarked) [Gentamicin]: the MIC in experiment [1] (setting [2]) amounted to 2 µg/mL (≈ 4.19 µM).

With `C[C@@H](O)[C@H]1C(=O)N2C(C(=O)O)=C(SCCN=CN)C[C@H]12` [Imipenem], the MIC in experiment [1] (CAMHB) is 256/512.

As to `NC[C@H]1O[C@H](O[C@H]2[C@H](O)[C@@H](O[C@H]3O[C@H](CO)[C@@H](O)[C@H](N)[C@H]3O)[C@H](N)C[C@@H]2N)[C@H](N)C[C@@H]1O` [Tobramycin], the MIC in experiment [1] (setting [2]) was found to be 1 µg/mL (≈ 2.14 µM).
